From PubChem BioAssay AID248 (DTP/NCI, 2004)
“And” between values parts separate entries of the source, which are not always exact repeats. Equal values may be shown once. Inconclusive results and toxic doses are left out. Cut-off read from the data, not from the text of the source: active = T/C of 150% or more; inactive = T/C below 125%.

System: L1210 leukemia ip in BDF1 mice, survival T/C
Test: NCI In Vivo Anticancer Drug Screen. Data for tumor model L1210 Leukemia (intraperitoneal) in B6D2F1 (BDF1) mice
Settings: endpoint: mean survival time, higher = longer survival
In short: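 Tumor was transplanted into mice, which were then dosed with test compound or vehicle alone. Survival was recorded for each group, and the treated figure was expressed relative to the control figure.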

[1] = dose: 100.0 mg/kg/injection, schedule: Q01DX009 (ip), vehicle: saline with Tween-80
[2] = dose: 200.0 mg/kg/injection, schedule: Q01DX009 (ip), vehicle: saline with Tween-80
[3] = dose: 100.0 mg/kg/injection, schedule: Q01DX001 (ip), vehicle: other
[4] = dose: 100.0 mg/kg/injection, schedule: Q01DX001 (ip), vehicle: carboxymethylcellulose (CMC)
[5] = dose: 200.0 mg/kg/injection, schedule: Q01DX001 (ip), vehicle: carboxymethylcellulose (CMC)
[6] = dose: 400.0 mg/kg/injection, schedule: Q01DX001 (ip), vehicle: carboxymethylcellulose (CMC)
[7] = dose: 100.0 mg/kg/injection, schedule: Q04DX002 (ip), vehicle: saline
[8] = dose: 200.0 mg/kg/injection, schedule: Q04DX002 (ip), vehicle: saline
[9] = dose: 400.0 mg/kg/injection, schedule: Q04DX002 (ip), vehicle: saline
[10] = dose: 50.0 mg/kg/injection, schedule: Q01DX009 (ip), vehicle: Klucel (hydroxypropylcellulose) (HPC)
[11] = dose: 100.0 mg/kg/injection, schedule: Q01DX009 (ip), vehicle: Klucel (hydroxypropylcellulose) (HPC)
[12] = dose: 100.0 mg/kg/injection, schedule: Q04DX003 (ip), vehicle: Klucel (hydroxypropylcellulose) (HPC)
[13] = dose: 200.0 mg/kg/injection, schedule: Q01DX009 (ip), vehicle: Klucel (hydroxypropylcellulose) (HPC)
[14] = dose: 200.0 mg/kg/injection, schedule: Q04DX003 (ip), vehicle: Klucel (hydroxypropylcellulose) (HPC)
[15] = dose: 100.0 mg/kg/injection, schedule: Q04DX003 (ip), vehicle: saline
[16] = dose: 200.0 mg/kg/injection, schedule: Q04DX003 (ip), vehicle: saline
[17] = dose: 400.0 mg/kg/injection, schedule: Q04DX003 (ip), vehicle: saline
[18] = dose: 100.0 mg/kg/injection, schedule: Q01DX001 (ip), vehicle: saline
[19] = dose: 200.0 mg/kg/injection, schedule: Q01DX001 (ip), vehicle: saline
[20] = dose: 400.0 mg/kg/injection, schedule: Q01DX001 (ip), vehicle: saline
[21] = dose: 400.0 mg/kg/injection, schedule: Q04DX003 (ip), vehicle: Klucel (hydroxypropylcellulose) (HPC)
[22] = dose: 50.0 mg/kg/injection, schedule: Q04DX003 (ip), vehicle: saline

Measured: T/C

[CH3][Pb]([CH3])([CH3])[NH]C#N
inactive: dose: 5.0 mg/kg/injection, schedule: Q04DX003 (ip), vehicle: saline 101 % of control | dose: 10.0 mg/kg/injection, schedule: Q04DX003 (ip), vehicle: saline 86 % of control

CC(=O)OC(C(=O)N(c1ccccc1)c1ccccc1)c1ccccc1 (centres undefined)
inactive: [1] 98 % of control | [2] 95 % of control | dose: 400.0 mg/kg/injection, schedule: Q01DX009 (ip), vehicle: saline with Tween-80 93 % of control

NC(=O)NN=C1CCCCCCCCCCC1
inactive: [3] 95 % of control | dose: 100.0 mg/kg/injection, schedule: Q04DX003 (ip), vehicle: saline with Tween-80 97 % of control | dose: 200.0 mg/kg/injection, schedule: Q01DX001 (ip), vehicle: other 95 % of control | dose: 200.0 mg/kg/injection, schedule: Q04DX003 (ip), vehicle: saline with Tween-80 105 % of control | dose: 400.0 mg/kg/injection, schedule: Q01DX001 (ip), vehicle: other 103 % of control | dose: 400.0 mg/kg/injection, schedule: Q04DX003 (ip), vehicle: saline with Tween-80 94 % of control

CC(=O)Nc1ccc(/C=N/NC(=O)C(O)(c2ccccc2)c2ccccc2)cc1
inactive: [4] 97 % of control | [5] 103 % of control | [6] 97 % of control

O=C(Nc1ccc(Br)cc1)Nc1cccc(Cl)c1
inactive: [7] 103 % of control | [8] 103 % of control | [9] 96 % of control

COc1ccc(N(N=O)C(C)C)cc1
inactive: dose: 12.5 mg/kg/injection, schedule: Q01DX009 (ip), vehicle: saline with Tween-80 87 % of control | dose: 25.0 mg/kg/injection, schedule: Q01DX009 (ip), vehicle: saline with Tween-80 94 % of control | dose: 50.0 mg/kg/injection, schedule: Q01DX009 (ip), vehicle: saline with Tween-80 87 % of control | [1] 89 % of control | [2] 92 % of control

COc1ccc(CNCCNCc2ccc(OC)cc2)cc1
inactive: [10] 96 % of control | [11] 100 % of control | dose: 100.0 mg/kg/injection, schedule: Q01DX009 (ip), vehicle: water 98 % of control | [12] 103 % of control | dose: 100.0 mg/kg/injection, schedule: Q04DX003 (ip), vehicle: water 96 % of control | [13] 96 % of control | dose: 200.0 mg/kg/injection, schedule: Q01DX009 (ip), vehicle: water 92 % of control | [14] 94 % of control | dose: 200.0 mg/kg/injection, schedule: Q04DX003 (ip), vehicle: water 100 % of control | dose: 400.0 mg/kg/injection, schedule: Q01DX009 (ip), vehicle: water 89 % of control | dose: 400.0 mg/kg/injection, schedule: Q04DX003 (ip), vehicle: water 100 % of control

COc1ccc([N+](=O)[O-])cc1NC(=O)Nc1ccccc1C(N)=O
inactive: [10] 105 % of control | [11] 101 % of control | [13] 97 % of control

O=P(O)(O)CCC(O)CO (centres undefined)
inactive: [7] 94 % of control | [8] 97 % of control | [9] 102 % of control

CCO/C=N/NC(=O)CNC(=O)C=[N+]=[N-]
inactive: dose: 180.0 mg/kg/injection, schedule: Q01DX001 (ip), vehicle: water 100 % of control and 116 % of control | dose: 270.0 mg/kg/injection, schedule: Q01DX001 (ip), vehicle: water 101 % of control and 117 % of control | dose: 400.0 mg/kg/injection, schedule: Q01DX001 (ip), vehicle: water 105 % of control and 117 % of control | dose: 600.0 mg/kg/injection, schedule: Q01DX001 (ip), vehicle: water 106 % of control and 111 % of control

O=C(c1ccccc1)C1(Br)CCC1
inactive: dose: 100.0 mg/kg/injection, schedule: Q01DX009 (ip), vehicle: saline sonified 101 % of control | dose: 200.0 mg/kg/injection, schedule: Q01DX009 (ip), vehicle: saline sonified 97 % of control | dose: 400.0 mg/kg/injection, schedule: Q01DX009 (ip), vehicle: saline sonified 101 % of control

CCOC(=O)/C=C/C(=O)O.[Fe]
inactive: [15] 101 % of control | [16] 95 % of control | [17] 101 % of control

CC(Br)c1ccc2c(c1)Cc1ccccc1-2 (centres undefined)
inactive: [4] 97 % of control | [5] 89 % of control | [6] 97 % of control

O=C(O)c1cccc(CCc2cccnc2)c1
inactive: dose: 100.0 mg/kg/injection, schedule: Q01DX001 (ip), vehicle: saline with Tween-80 98 % of control | dose: 200.0 mg/kg/injection, schedule: Q01DX001 (ip), vehicle: saline with Tween-80 101 % of control | dose: 400.0 mg/kg/injection, schedule: Q01DX001 (ip), vehicle: saline with Tween-80 93 % of control

Nc1ncnc2c1cnn2CCCl
inactive: [18] 101 % of control | [15] 106 % of control | dose: 132.0 mg/kg/injection, schedule: Q04DX003 (ip), vehicle: saline 104 % of control and 123 % of control | [19] 101 % of control | [16] 102 % of control and 124 % of control | dose: 300.0 mg/kg/injection, schedule: Q04DX003 (ip), vehicle: saline 104 % of control | [20] 102 % of control | [17] 101 % of control

O=C(OC1C=CCC1)c1ccc([N+](=O)[O-])cc1 (centres undefined)
inactive: [12] 97 % of control | [14] 93 % of control | [21] 93 % of control

O=[N+]([O-])c1ccccc1C1CCCCC1
inactive: dose: 100.0 mg/kg/injection, schedule: Q04DX002 (ip), vehicle: saline with Tween-80 89 % of control | dose: 200.0 mg/kg/injection, schedule: Q04DX002 (ip), vehicle: saline with Tween-80 93 % of control | dose: 400.0 mg/kg/injection, schedule: Q04DX002 (ip), vehicle: saline with Tween-80 100 % of control

O=C1CCC2(CCCc3c2ccc2ccccc32)O1 (centres undefined)
inactive: [22] 97 % of control | [15] 97 % of control | [16] 90 % of control

NC(=O)/C(=C\c1ccc([N+](=O)[O-])o1)c1ccco1
inactive: dose: 55.0 mg/kg/injection, schedule: Q01DX Z (ip), vehicle: methylcellulose (MC) 93 % of control | dose: 83.0 mg/kg/injection, schedule: Q01DX Z (ip), vehicle: methylcellulose (MC) 98 % of control | dose: 125.0 mg/kg/injection, schedule: Q01DX Z (ip), vehicle: methylcellulose (MC) 100 % of control

Oc1ccc(Nc2ccnc3cc(Cl)ccc23)cc1CN1CCCC1
inactive: dose: 12.5 mg/kg/injection, schedule: Q01DX009 (ip), vehicle: saline 102 % of control | dose: 12.5 mg/kg/injection, schedule: Q04DX003 (ip), vehicle: saline 101 % of control | dose: 25.0 mg/kg/injection, schedule: Q01DX009 (ip), vehicle: saline 102 % of control | dose: 25.0 mg/kg/injection, schedule: Q04DX003 (ip), vehicle: saline 103 % of control | dose: 50.0 mg/kg/injection, schedule: Q01DX009 (ip), vehicle: saline 100 % of control | [22] 97 % of control | dose: 75.0 mg/kg/injection, schedule: Q01DX009 (ip), vehicle: saline 95 % of control | dose: 115.0 mg/kg/injection, schedule: Q01DX009 (ip), vehicle: saline 102 % of control

CC(=O)OCCC/C(=C\c1ccc(F)cc1)[N+](=O)[O-]
inactive: [3] 111 % of control

Nc1cc(Cl)cc2cc(Br)cnc12
inactive: [12] 101 % of control | [14] 98 % of control | [21] 95 % of control

COC(=O)C1CCC=C2C1CC1CC2C1(C)C (centres undefined)
inactive: [12] 97 % of control | [14] 103 % of control | [21] 95 % of control

OC(Cc1cncc(CC(O)(C(F)(F)F)C(F)(F)F)n1)(C(F)(F)F)C(F)(F)F
inactive: dose: 100.0 mg/kg/injection, schedule: Q01DX009 (ip), vehicle: saline 95 % of control | [15] 96 % of control | dose: 200.0 mg/kg/injection, schedule: Q01DX009 (ip), vehicle: saline 105 % of control | [16] 92 % of control | dose: 400.0 mg/kg/injection, schedule: Q01DX009 (ip), vehicle: saline 98 % of control | [17] 97 % of control

CCC(=O)CC(C)(C)C
inactive: [18] 92 % of control | [19] 97 % of control | [20] 100 % of control
